Structures can show the parent of a compound that is named as a salt.
Columns and labels:
Assay type in all cases: cell-based
[1] = system: HTT mRNA canonical junction (CJ); assay: Splicing RT-qPCR assay, decrease of HTT canonical junction (CJ) mRNA; details: A673 or K562 cells, 24 hours compound treatment, concentration having 50% response in CJ decrease
Procedure: (§1) Compounds described herein were used to modulate RNA transcript abundance in cells. The expression of a target mRNA was measured by detecting the formation of an exon-exon junction in the canonical transcript (CJ). A compound mediated exon-inclusion event was detected by observing an increase in formation of a new junction with an alternative exon (AJ). Real-time qPCR assays were used to detect these splicing switches and interrogate the potency of various compounds towards different target genes. A high-throughput real time quantitative PCR (RT-qPCR) assay was developed to measure these two isoforms of the mRNA (CJ and AJ) for an exemplary gene, HTT, together with a control housekeeping gene, GAPDH or GUSB or PPIA, used for normalization. Briefly, the A673 or K562 cell line was treated with various compounds described herein (e.g., compounds of Formula (I)). After treatment, the levels of the HTT mRNA targets were determined from each sample of cell lysate by cDNA synthesis followed by qPCR.
(§2) The A673 cell line was cultured in DMEM with 10% FBS. Cells were diluted with full growth media and plated in a 96-well plate (15,000 cells in 100 ul media per well). The plate was incubated at 37° C. with 5% CO2 for 24 hours to allow cells to adhere. An 11-point 3-fold serial dilution of the compounds was made in DMSO then diluted in media in an intermediate plate. Compounds were transferred from the intermediate plate to the cell plate with the top dose at a final concentration of 10 uM in the well. Final DMSO concentration was kept at or below 0.25%. The cell plate was returned to the incubator at 37° C. with 5% CO2 for an additional 24 hours.
(§3) The K562 cell line was cultured in IMDM with 10% FBS. For K562, cells were diluted with full growth media and plated in either a 96-well plate (50,000 cells in 50 uL media per well) or a 384-well plate (8,000-40,000 cells in 45 uL media per well). An 11-point 3-fold serial dilution of the compounds were made in DMSO then diluted in media in an intermediate plate. Compound was transferred from the intermediate plate to the cell plate with the top dose at a final concentration of 10 uM in the well. Final DMSO concentration was kept at or below 0.25%. Final volume was 100 uL for 96-well plate and 50 uL for 384-well plate. The cell plate was then placed in an incubator at 37° C. with 5% CO2 for 24 hours.
(§4) The cells were then gently washed with 50 uL-100 uL cold PBS before proceeding to addition of lysis buffer. 30 uL-50 uL of room temperature lysis buffer with DNAse I (and optionally RNAsin) was added to each well. Cells were shaken/mixed thoroughly at room temperature for 5-10 minutes for lysis to take place and then 3 uL-5 uL of room temperature stop solution was added and wells were shaken/mixed again. After 2-5 minutes, the cell lysate plate was transferred to ice for RT-qPCR reaction setup. The lysates could also be frozen at −80° C. for later use.
(§5) In some cases, a direct lysis buffer was used. An appropriate volume of 3× lysis buffer (10 mM Tris, 150 mM NaCl, 1.5%-2.5% Igepal and 0.1-1 U/uL RNAsin, pH 7.4) was directly added to either K562 or A673 cells in media and mixed by pipetting 3 times. The plates were then incubated at room temperature with shaking/rocking for 20-50 minutes to allow for lysis to take place. After this time, the cell lysate plate was transferred to ice to set up for the RT-qPCR reactions. The lysates could also be frozen at −80° C. for later use.
(§6) To set up 10 uL RT-qPCR reactions, cell lysates were transferred to 384-well qPCR plates containing the master mix according to the table below. The plates were sealed, gently vortexed, and spun down before the run. The volumes were adjusted accordingly in some instances where the reaction was carried in 20 uL. The table below summarizes the components of the RT-qPCR reactions:
(§7) The RT-qPCR reaction was performed using a QuantStudio (ThermoFisher) under the following fast cycling conditions. […]

HTT CJ mRNA = assay: Gene panel canonical junction qPCR assay, HTT; details: protocol of Example 42, read-out: HTT IC50 (decrease in CJ mRNA levels)
Procedure: as §1, §2, §3
(§8) The data analysis was performed by first determining the ACt vs the housekeeper gene. This ACt was then normalized against the DMSO control (AACt) and converted to RQ (relative quantification) using the 2^(−ΔΔCt) equation. The RQ were then converted to a percentage response by arbitrarily setting an assay window of 3.5 ΔCt for HTT-CJ and an assay window of 9 ΔCt for HTT-AJ. […] The percentage response was then fitted to the 4 parametric logistic equation to evaluate the concentration dependence of compound treatment. The increase in AJ mRNA is reported as AC50 (compound concentration having 50% response in AJ increase) while the decrease in CJ mRNA levels is reported as IC50 (compound concentration having 50% response in CJ decrease).
(§9) Additional studies were carried out for a larger panel of genes using the protocol provided above. The junction between flanking upstream and downstream exons was used to design canonical junction qPCR assays. At least one of the forward primer, reverse primer or the CY5-labeled 5′ nuclease probe (with 3′ quencher such as ZEN/Iowa Black FQ) was designed to overlap with the exon junction to capture the CJ mRNA transcript. BLAST was used to confirm the specificity of the probeset and parameters such as melting temperature, GC content, amplicon size, and primer dimer formation are considered during their design. Data for the decrease in CJ mRNA levels for three exemplary genes (HTT, SMN2, and Target C) analyzed in this panel are reported as IC50 (compound concentration having 50% response in CJ decrease).

Target C CJ mRNA = assay: Gene panel canonical junction qPCR assay, Target C; details: protocol of Example 42, read-out: Target C IC50 (decrease in CJ mRNA levels)
Procedure: as §1, §2, §3, §8, §9

[2] = system: HTT mRNA alternative junction (AJ); assay: Splicing RT-qPCR assay, increase of HTT alternative junction (AJ) mRNA; details: A673 or K562 cells, 24 hours compound treatment, concentration having 50% response in AJ increase
Procedure: as §1, §2, §3, §4, §5, §6, §7

SMN2 CJ mRNA = assay: Gene panel canonical junction qPCR assay, SMN2; details: protocol of Example 42, read-out: SMN2 IC50 (decrease in CJ mRNA levels)
Procedure: as §1, §2, §3, §8, §9

Structure (SMILES)	AC50 [1] [nM]	IC50 (HTT CJ mRNA) [nM]	IC50 (Target C CJ mRNA) [nM]	AC50 [2] [nM]	IC50 (SMN2 CJ mRNA) [nM]
Cc1cn2nc(NC(=O)c3ccc(C4CCNCC4)c4cc(C)oc34)cc(C)c2n1 [Compound 118, N-[2,8-dimethylimidazo[1,2-b]pyridazin-6-yl]-2-methyl-4-(piperidin-4-yl)-1-benzofuran-7-carboxamide]	1000 to 10000	1000 to 10000	> 10000	1000 to 10000	
Cc1cn2nc(NC(=O)c3ccc(C4CCNCC4)c4ccoc34)cc(C)c2n1 [Compound 119, N-[2,8-dimethylimidazo[1,2-b]pyridazin-6-yl]-4-(piperidin-4-yl)-1-benzofuran-7-carboxamide]	1000 to 10000	1000 to 10000	> 10000	> 10000	100 to 1000
Cc1cn2cc(NC(=O)c3ccc(N4CCNCC4)c4nc(C)oc34)cc(F)c2n1 [Compound 140]	1000 to 10000	1000 to 10000		1000 to 10000	100 to 1000
Cc1cn2cc(NC(=O)c3ccc(N4CCNCC4)c4oc(C)nc34)cc(F)c2n1 [Compound 141, N-[8-fluoro-2-methylimidazo[1,2-a]pyridin-6-yl]-2-methyl-7-(piperazin-1-yl)-1,3-benzoxazole-4-carboxamide hydrochloride]	< 100	< 100	100 to 1000	< 100	< 100
Cc1cn2cc(NC(=O)c3ccc(N4CCNCC4)c4cc(C)oc34)cc(F)c2n1 [Compound 142, N-[8-fluoro-2-methylimidazo[1,2-a]pyridin-6-yl]-2-methyl-4-(piperazin-1-yl)-1-benzofuran-7-carboxamide]	1000 to 10000	1000 to 10000	100 to 1000	1000 to 10000	< 100
Cc1cn2cc(NC(=O)c3ccc(N4CCNCC4)c4cn(C)nc34)cc(F)c2n1 [Compound 143, N-[8-fluoro-2-methylimidazo[1,2-a]pyridin-6-yl]-2-methyl-4-(piperazin-1-yl) indazole-7-carboxamide]	100 to 1000	100 to 1000	< 100	100 to 1000	< 100
Cc1cn2cc(NC(=O)c3ccc(C4CCNCC4)c4cc(C)oc34)cc(F)c2n1 [Compound 145, N-[8-fluoro-2-methylimidazo[1,2-a]pyridin-6-yl]-2-methyl-4-(piperidin-4-yl)-1-benzofuran-7-carboxamide]	1000 to 10000	1000 to 10000	100 to 1000	1000 to 10000	< 100
Cc1cn2nc(NC(=O)c3ccc(N4CCNCC4)c4cc(C)oc34)cc(C)c2n1 [Compound 148, N-[2,8-dimethylimidazo[1,2-b]pyridazin-6-yl]-2-methyl-4-(piperazin-1-yl)-1-benzofuran-7-carboxamide]	1000 to 10000	1000 to 10000	1000 to 10000	1000 to 10000	100 to 1000
Cc1cn2cc(NC(=O)c3ccc(C4CCNCC4)c4ccoc34)cc(F)c2n1 [Compound 149, N-[8-fluoro-2-methylimidazo[1,2-a]pyridin-6-yl]-4-(piperidin-4-yl)-1-benzofuran-7-carboxamide hydrochloride]	1000 to 10000	1000 to 10000	> 10000	1000 to 10000	< 100
Cc1cn2cc(NC(=O)c3ccc(C4CCNCC4)c4oc(C)nc34)cc(F)c2n1 [Compound 187, N-[8-fluoro-2-methylimidazo[1,2-a]pyridin-6-yl]-2-methyl-7-(piperidin-4-yl)-1,3-benzoxazole-4-carboxamide]	100 to 1000	100 to 1000	100 to 1000	100 to 1000	< 100
Cc1cn2cc(NC(=O)c3ccc(C4CCNCC4)c4c3OCC4)cc(F)c2n1 [Compound 188, N-[8-fluoro-2-methylimidazo[1,2-a]pyridin-6-yl]-4-(piperidin-4-yl)-2,3-dihydro-1-benzofuran-7-carboxamide]	> 10000	> 10000	1000 to 10000	> 10000	100 to 1000
CCC1CN(c2ccc(C(=O)Nc3cc(F)c4nc(C)cn4c3)c3oc(C)cc23)CCN1 (stereo not drawn) [Compound 192]		1000 to 10000	1000 to 10000		< 100
Cc1cn2cc(NC(=O)c3ccc(N4CC(C)(C)NC(C)(C)C4)c4cc(C)oc34)cc(F)c2n1 [Compound 195]		> 10000	> 10000		< 100
Cc1cn2nc(-c3ccc(C(=O)NC4CCNCC4)c4oc(C)cc34)cc(C)c2n1 [Compound 282, 4-{2,8-dimethylimidazo[1,2-b]pyridazin-6-yl}-2-methyl-N-(piperidin-4-yl)-1-benzofuran-7-carboxamide]	1000 to 10000			1000 to 10000	
Cc1cn2cc(-c3ccc(C(=O)NC4CCNCC4)c4oc(C)cc34)cc(F)c2n1 [Compound 283, 4-{8-fluoro-2-methylimidazo[1,2-a]pyridin-6-yl}-2-methyl-N-(piperidin-4-yl)-1-benzofuran-7-carboxamide]	1000 to 10000			> 10000	
CCn1cc2c(N3CCNCC3)ccc(C(=O)Nc3cc(Cl)c4nc(C)cn4c3)c2n1 [Compound 284, N-{8-chloro-2-methylimidazo[1,2-a]pyridin-6-yl}-2-ethyl-4-(piperazin-1-yl)indazole-7-carboxamide]	1000 to 10000			> 10000	
Cc1cn2cc(NC(=O)c3ccc(C4CCNCC4)c4cn(C)nc34)cc(Cl)c2n1 [Compound 285, N-{8-chloro-2-methylimidazo[1,2-a]pyridin-6-yl}-2-methyl-4-(piperidin-4-yl) indazole-7-carboxamide]	100 to 1000			100 to 1000	
Cc1cn2cc(NC(=O)c3ccc(N4CCNCC4)c4c[nH]nc34)cc(Cl)c2n1 [Compound 286, N-{8-chloro-2-methylimidazo[1,2-a]pyridin-6-yl}-4-(piperazin-1-yl)-2H-indazole-7-carboxamide]	> 10000			> 10000	

— patent US20230365566A1, “HETEROCYCLIC AMIDES AND THEIR USE FOR MODULATING SPLICING” (REMIX THERAPEUTICS INC., priority 2020, published 2023)
